≈ marks a conversion by molar mass, not a printed value. Calls of active or inactive are those of the source. The calls are words filed in the database; no cut-off is given here.
Columns and labels:
[1] = tested on: Mycobacterium tuberculosis; experiment: microbe, parasite or virus in culture; type: functional; conditions: H37Ra
[2] = tested on: Mycobacterium tuberculosis; experiment: Antimycobacterial activity against Mycobacterium tuberculosis H37Ra infected in gamma interferon-knockout mouse assessed as reduction in lung CFU load at 150 mg/kg, po BID dosage beginning at 15 post infection for 9 days (reference value: 8.86 +/- 0.02 log10CFU); type: functional
[3] = tested on: Mycobacterium tuberculosis; experiment: Antimycobacterial activity against Mycobacterium tuberculosis H37Ra infected in gamma interferon-knockout mouse assessed as reduction in spleen CFU load at 150 mg/kg, po BID dosage beginning at 15 post infection for 9 days (reference value: 7.30 +/- 0.09 log10CFU); type: functional
[4] = target: T1, Bifunctional epoxide hydrolase 2 (Homo sapiens, UniProt P34913);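 further: recombinant enzyme with CMNPC substrate, fluorescence readout of 6-methoxy-2-naphthaldehyde formed over a 10 min reaction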
T1 sequence (P34913 whole entry): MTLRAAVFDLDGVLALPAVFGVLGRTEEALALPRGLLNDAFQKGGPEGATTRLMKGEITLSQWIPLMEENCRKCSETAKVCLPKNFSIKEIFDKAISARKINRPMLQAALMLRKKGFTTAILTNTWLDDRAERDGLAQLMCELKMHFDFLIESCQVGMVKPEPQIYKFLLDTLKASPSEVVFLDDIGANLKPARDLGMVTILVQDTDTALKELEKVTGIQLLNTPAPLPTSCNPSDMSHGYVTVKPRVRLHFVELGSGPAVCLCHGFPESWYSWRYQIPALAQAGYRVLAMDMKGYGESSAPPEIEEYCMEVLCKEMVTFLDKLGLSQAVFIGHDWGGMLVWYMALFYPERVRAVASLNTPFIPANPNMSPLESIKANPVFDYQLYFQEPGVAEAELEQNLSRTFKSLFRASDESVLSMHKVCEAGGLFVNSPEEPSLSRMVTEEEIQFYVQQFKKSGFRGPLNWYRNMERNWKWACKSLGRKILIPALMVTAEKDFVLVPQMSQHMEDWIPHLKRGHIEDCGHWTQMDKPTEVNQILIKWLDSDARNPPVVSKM

[5] = tested on: Mycobacterium tuberculosis; experiment: Antimycobacterial activity against Mycobacterium tuberculosis H37Ra at 10 uM; type: functional, organism-based
[6] = tested on: Mycobacterium tuberculosis; experiment: Inhibition of Mycobacterium tuberculosis epoxide hydrolase E expressed in Escherichia coli BL21AI cells using cyano(6-methoxy-2-napthalenyl)methyl[(2,3)-3-phenyloxiranyl] methyl ester carbonate as substrate at 10 nM preincubated for 10 mins before substrate addition measured after 30 mins by spectrofluorometric analysis
[7] = mycobacterium tuberculosis h37ra, cytosol, 5 µM

Row | SMILES | MIC [1] | IC50 [4] | other results
1 | COC(=O)c1ccc(NC(=O)NC2C3CC4CC(C3)CC2C4)cc1O (stereo not given) | 0.1 µg/mL (≈ 0.29 µM) | – | log10cfu [2]: 8.74; log10cfu [3]: 7.33
2 | O=C(Nc1cccc(C(F)(F)F)c1)NC12CC3CC(CC(C3)C1)C2 | 0.8 µg/mL (≈ 2.36 µM) | 2.4 nM | –
3 | O=C(Nc1ccc(C(F)(F)F)cc1)Nc1ccc(C(F)(F)F)cc1 | 2.18 µg/mL (≈ 6.26 µM) | 15 nM | –
4 | O=C(NC1CCCC(C(=O)N2CCC(N3CCOCC3)CC2)C1)NC12CC3CC(CC(C3)C1)C2 (stereo not given) | > 95 µg/mL | 6.1 nM | –
5 | O=C(CCCCCCOCc1ccccc1)NC12CC3CC(CC(C3)C1)C2 | 9.24 µg/mL (≈ 25 µM) | 66.5 nM | –
6 | O=C(Nc1cccc(C(=O)c2ccccc2)c1)NC12CC3CC(CC(C3)C1)C2 | 4.68 µg/mL (≈ 12.5 µM) | 2.7 nM | –
7 | O=C(NC12CC3CC(CC(C3)C1)C2)N[C@H]1CC[C@H](Oc2ccc(C(=O)O)cc2)CC1 | 21 µg/mL (≈ 50.9 µM) | – | Activity [5]: inactive
8 | O=C(Nc1ccc(I)cc1)NC12CC3CC(CC(C3)C1)C2 | 0.6 µg/mL (≈ 1.51 µM) | 0.5 nM | –
9 | O=C(NC12CC3CC(CC(C3)C1)C2)N[C@H]1CC[C@H](OC(=O)c2ccccc2)CC1 | > 79 µg/mL | 1 nM | Activity [5]: inactive
10 | O=C(NCC1CCCCC1)Nc1cccc(Cl)c1 | 1.67 µg/mL (≈ 6.26 µM) | 2.6 nM | –
11 | O=C(Nc1ccc(F)c(F)c1F)NC1C2CC3CC(C2)CC1C3 (stereo not given) | – | – | inhibition [6]: 68%
12 | CCOCCOCCOCCCCCCNC(=O)NC12CC3CC(CC(C3)C1)C2 | 82 µg/mL (≈ 200 µM) | 1.2 nM | –
13 | COCCOCCCCCNC(=O)NC12CC3CC(CC(C3)C1)C2 | 68 µg/mL (≈ 201 µM) | 12.1 nM | –
14 | COc1cc(NC(=O)NC23CC4CC(CC(C4)C2)C3)cc(C(F)(F)F)c1 | 0.58 µg/mL (≈ 1.57 µM) | 1.7 nM | –
15 | COC(=O)c1ccc(NC(=O)N[C@H]2CC[C@@H](Oc3cc(C(=O)OC)cc(C(=O)OC)c3)CC2)cc1 | 3.03 µg/mL (≈ 6.25 µM) | 3.8 nM | –
16 | O=C(NC12CC3CC(CC(C3)C1)C2)N[C@H]1CC[C@H](Oc2ccc(C(F)(F)F)cn2)CC1 | > 88 µg/mL | 4.8 nM | –
17 | COC(=O)CCc1ccc(NC(=O)NC23CC4CC(CC(C4)C2)C3)cc1 | 2.2 µg/mL (≈ 6.17 µM) | 2 nM | –
18 | CCCCCCCCCCCC(=O)NC12CC3CC(CC(C3)C1)C2 | 4.17 µg/mL (≈ 12.5 µM) | 159 nM | –
19 | O=C(NC12CC3CC(CC(C3)C1)C2)N[C@H]1CC[C@@H](Oc2ccc(C(F)(F)F)cn2)CC1 | 1.37 µg/mL (≈ 3.13 µM) | 1.8 nM | –
20 | O=C(Nc1cccc(OC(F)(F)C(F)F)c1)NC12CC3CC(CC(C3)C1)C2 | 1.4 µg/mL (≈ 3.62 µM) | 1.5 nM | –
21 | COC(=O)c1cccc(O[C@H]2CC[C@@H](NC(=O)NC34CC5CC(CC(C5)C3)C4)CC2)c1 | > 85 µg/mL | 2.5 nM | Activity [5]: inactive
22 | CCOC(=O)C(F)(F)Oc1ccc(NC(=O)NC23CC4CC(CC(C4)C2)C3)cc1 | 1.28 µg/mL (≈ 3.13 µM) | 0.8 nM | –
23 | O=C(NCCCCCOCCOCCOCc1ccccc1)NC12CC3CC(CC(C3)C1)C2 | 46 µg/mL (≈ 100 µM) | 10.8 nM | –
24 | CC(C)c1ccc(NC(=O)NCC2CCCCC2)cc1 | 1.72 µg/mL (≈ 6.27 µM) | 1.1 nM | –
25 | Cc1cccc(NC(=O)NC23CC4CC(CC(C4)C2)C3)c1 | 1.1 µg/mL (≈ 3.87 µM) | 6.1 nM | –
26 | CCCCCO[C@H]1CC[C@H](NC(=O)NC23CC4CC(CC(C4)C2)C3)CC1 | 25 µg/mL (≈ 69 µM) | – | inhibition [6]: 93%; Drug uptake [7]: 128 ng
27 | O=C(Nc1ccc(OCCCN2CCOCC2)cc1)NC12CC3CC(CC(C3)C1)C2 | > 17 µg/mL | – | inhibition [6]: 19%; Drug uptake [7]: 103 ng
28 | O=C(Nc1cccc(C(=O)O)c1)NC12CC3CC(CC(C3)C1)C2 | 7.8 µg/mL (≈ 24.8 µM) | – | Activity [5]: Active

Row | SMILES | MIC [1] | IC50 [4] | other results
29 | COCC(=O)c1ccc(O[C@H]2CC[C@@H](NC(=O)NC34CC5CC(CC(C5)C3)C4)CC2)cc1 | 5.51 µg/mL (≈ 12.5 µM) | 3.8 nM | –
30 | CCOC(=O)COc1ccc(NC(=O)NC23CC4CC(CC(C4)C2)C3)cc1 | 4.7 µg/mL (≈ 12.6 µM) | 0.8 nM | –
31 | O=C(Nc1cccc(Oc2ccccc2)c1)NC12CC3CC(CC(C3)C1)C2 | 2.27 µg/mL (≈ 6.26 µM) | 0.9 nM | –
32 | O=C(Nc1ccc(CC(=O)c2ccccc2)cc1)NC12CC3CC(CC(C3)C1)C2 | 2.43 µg/mL (≈ 6.25 µM) | 4.7 nM | –
33 | CCCCCCc1ccc(NC(=O)NC2CCCCC2)cc1 | 1.89 µg/mL (≈ 6.25 µM) | 1.8 nM | –
34 | CCCC(C)OCCOCCOCCCCCNC(=O)NC12CC3CC(CC(C3)C1)C2 (stereo not given) | > 91 µg/mL | 6.2 nM | –
35 | C=CCO[C@H]1CC[C@@H](NC(=O)NC23CC4CC(CC(C4)C2)C3)CC1 | > 66 µg/mL | 1.3 nM | –
36 | O=C(Nc1ccc(Oc2ccccc2)cc1)NC12CC3CC(CC(C3)C1)C2 | 0.1 µg/mL (≈ 0.276 µM) | 0.5 nM | –
37 | C=C(CCCNC(=O)NC12CC3CC(CC(C3)C1)C2)OCCOCCOCC | > 79 µg/mL | 67 nM | –
38 | O=C(Nc1cccc(C(=O)NCC2CN(Cc3ccccc3)CCO2)c1)NC12CC3CC(CC(C3)C1)C2 (stereo not given) | > 101 µg/mL | 13.6 nM | –
39 | COC(=O)c1ccc(NC(=O)NC2CCCCCC2)cc1 | 3.63 µg/mL (≈ 12.5 µM) | 12.3 nM | Activity [5]: inactive
40 | O=C(Nc1cccc(C(F)(F)F)c1)NC1CCCCC1 | 1.79 µg/mL (≈ 6.25 µM) | 8.7 nM | –
41 | CC(=O)c1ccc(NC(=O)NC23CC4CC(CC(C4)C2)C3)cc1 | 2 µg/mL (≈ 6.4 µM) | 6.3 nM | –
42 | O=C(Nc1cccc(OC(F)(F)F)c1)NC12CC3CC(CC(C3)C1)C2 | 0.2 µg/mL (≈ 0.564 µM) | 3.1 nM | –
43 | O=C(Nc1ccc(OCCN2CCOCC2)cc1Cl)NC12CC3CC(CC(C3)C1)C2 | > 87 µg/mL | 2.4 nM | –
44 | O=C(Nc1cccc(C(=O)NCCCN2CCOCC2)c1)NC12CC3CC(CC(C3)C1)C2 | > 33 µg/mL | 57.9 nM | –
45 | O=C(Nc1cccc([N+](=O)[O-])c1)N[C@H]1CC[C@H](OCc2c(F)cccc2F)CC1 | 10.1 µg/mL (≈ 25 µM) | 90 nM | –
46 | O=C(Nc1ccc(OC(F)(F)F)cc1)NC1CCCCC1 | 0.94 µg/mL (≈ 3.11 µM) | 0.8 nM | –
47 | O=C(Nc1cccc(C(=O)Nc2ccc(N3CCOCC3)cc2)c1)NC12CC3CC(CC(C3)C1)C2 | > 95 µg/mL | 74.2 nM | –
48 | COC(=O)Cc1ccc(NC(=O)NC23CC4CC(CC(C4)C2)C3)cc1 | 2.1 µg/mL (≈ 6.13 µM) | 4.4 nM | –
49 | CC(C)OCCOCCOCCCCCNC(=O)NC12CC3CC(CC(C3)C1)C2 | 21 µg/mL (≈ 51.1 µM) | 4.1 nM | –
50 | O=C(NC1CCCC(C(=O)N2CCOCC2)C1)NC12CC3CC(CC(C3)C1)C2 (stereo not given) | > 81 µg/mL | 8.2 nM | –
51 | CC(=O)c1cccc(NC(=O)NC23CC4CC(CC(C4)C2)C3)c1 | 3.9 µg/mL (≈ 12.5 µM) | 1.3 nM | –
52 | O=C(Nc1ccc(O)c(Cl)c1)NC12CC3CC(CC(C3)C1)C2 | 2 µg/mL (≈ 6.23 µM) | 5.1 nM | –
53 | O=C(Nc1ccc(OCCOCCOCC(F)(F)F)cc1)NC12CC3CC(CC(C3)C1)C2 | 11 µg/mL (≈ 24.1 µM) | 3.3 nM | –
54 | O=C(NCCCCCOCCN1CCOCC1)NC12CC3CC(CC(C3)C1)C2 | > 79 µg/mL | 2.3 nM | –
55 | O=C(Nc1ccc(N2CCOCC2)cc1)NC12CC3CC(CC(C3)C1)C2 | 18 µg/mL (≈ 50.6 µM) | 5.2 nM | –
